Test results: patent publication US11000501B2, “Composition for preventing or treating neurological and mental disorders, containing syringaresinol” (SEOUL NATIONAL UNIVERSITY R&DB FOUNDATION, priority 2016, dated 2021)

System: Schaffer collateral (SC)-CA1 synapse of the hippocampus
Test: fEPSP recording in hippocampal SC-CA1 synapse (hippocampal slices)
Assay type: cell-based, mouse
Details: 10 μM, applied after SYR
Experimental: A hippocampus slice (400 μm thick) was prepared in a cold dissection buffer using a vibrating machine (Vibratome, Leica, Germany) and then a CA3 region of each slice was removed surgically immediately after the slice formation. In this connection, the cold dissection buffer contained sucrose 230 mM; NaHCO3 25 mM; KCl 2.5 mM; NaH2PO4 1.25 mM; D-glucose 10 mM; Na-ascorbic acid salt 1.3 mM; MgCl2 3 mM; CaCl2 0.5 mM, 95% O2/5% CO2 and had pH 7.4. The slice was recovered in a normal ACSF (artificial cerebrospinal fluid) for 1 hour and then maintained at room temperature (23 to 25° C.) until recording. […] All electrophysiological experiments were performed in a recording chamber while the samples were immersed in the solution in a manner described previously (Song et al., 2017). Signals were amplified using a MultiClamp 700B amplifier (Molecular Devices, CA, USA) at a cut-off frequency of 2.8 kHz and were measured with a Digidata 1440A interface (Molecular Devices) at a 10 kHz sampling frequency. Data were collected using pClamp 10.2 (Molecular Devices) software. The collected data were analyzed with a program created in the lab using Igor Pro (WaveMetrics, OR, USA). To record the field excitatory post-synaptic potential (fEPSP) in the hippocampal SC-CA1 synapse, hippocampal slices were placed in the recording chamber and perfused with ACSF while oxygen was fed continuously to the ACSF. The ACSF was maintained at a temperature of 29 to 30° C. using a heater for perfusion (SH-27B, Warner Instruments, CT, USA). A synapse response was induced by stimulation with a glass pipette (0.3 to 0.5 Mohm) every 20 seconds (0.05 Hz). The synapse response was recorded using a glass pipette (3 to 4 Mohm) filled with ACSF. The intensity of the stimulus was adjusted to produce a synapse response of about ⅓ of the maximum value thereof. The slices with unstable (10%) baseline records were excluded. To investigate the effect of syringaresinol (SYR) on the synaptic transmission, the field excitatory post-synaptic potential (fEPSP) of the Schaffer collateral (SC)-CA1 synapse of the hippocampus of adult mice (4 to 6 weeks of age) was measured. After confirming the stable baseline, different concentrations of SYR were applied thereto using the perfusion solution.

NS(=O)(=O)c1cccc2c1c([N+](=O)[O-])cc1nc(O)c(O)nc12 [NBQX, reference compound]
block of the synaptic response (fEPSP): completely blocked
